Test results: article PMC8899516, “Structure-Activity Relationship Studies of 4-((4-(2-fluorophenyl)piperazin-1-yl)methyl)-6-imino-N-(naphthalen-2-yl)-1,3,5-triazin-2-amine (FPMINT) Analogues as Inhibitors of Human Equilibrative Nucleoside Transporters” (Frontiers in Pharmacology, 2022)

What was measured:
Format in all cases: cell-based, human
ENT2 [1] = experiment: Western blotting of ENT2 protein expression; details: 50 µM, 24 h or 48 h
Procedure: PK15NTD/ENT1 and PK15NTD/ENT2 cells were grown to confluence in 10-cm culture dishes and treated with 50 µM of compound 3c or an equivalent volume of a vehicle (0.5% DMSO) for 24 h or 48 h. The cells were washed thrice with ice-cold PBS. Total protein was extracted by cell lysis in a lysis buffer (5 mM sodium monophosphate, pH 8) with a protease inhibitor cocktail (Sigma, St Louis, MO, United States; 1:1,000 [v/v]). The protein content was measured by bicinchoninic acid assay. Protein samples were separated by 12.5% sodium dodecyl sulfate–polyacrylamide gel electrophoresis (SDS-PAGE) and blotted onto polyvinylidene difluoride (PVDF) membranes. […] The membranes were then again washed, and the bound secondary antibodies were detected using an enhanced chemiluminescence kit (Bio-Rad, Hercules, CA, United States). […] To semi-quantify the ENT1 and ENT2 protein levels, the same membranes were washed three times with a stripping buffer for 10 min at room temperature, and the protein expression level of β-actin was measured using monoclonal mouse anti-β-actin primary antibodies (1:3,000 [v/v] dilution in a blocking solution). […]
FIGURE 5 Effects of compound 3c on cytotoxicity and protein expressions of ENT1 and ENT2. […] Total ENT1 and ENT2 from whole-cell lysates were also detected for a comparison. β-actin served as an internal reference. […]

ENT1 = experiment: Cell surface biotinylation and internalization assay; details: 50 µM, 24 h or 48 h, PK15NTD cells
Procedure: (§1) To label all surface proteins, after washing with ice-cold PBS, PK15NTD/ENT1 and PK15NTD/ENT2 cells were incubated with sulfo-NHS-SS-biotin (300 μg/ml) for 30 min at 4°C to biotinylate cell surface proteins. The unbound biotin was washed away by PBS containing 0.1% BSA at 4°C. The biotinylated cells were then incubated with the original growth media with or without 50 µM compound 3c and returned to the 5% CO2 incubator at 37 °C for 24 h or 48 h for transporter internalization. Transporter trafficking was stopped by rapidly cooling the cells at 4°C. […]
(§2) FIGURE 5 Effects of compound 3c on cytotoxicity and protein expressions of ENT1 and ENT2. Cytotoxicity of compound 3c was measured after 24 h or 48 h treatment of PK15NTD/ENT1 and PK15NTD/ENT2 cells with various concentrations of compound 3c (0.5, 5 and 50 μM) or a vehicle (0.5% DMSO, as a control) (A) The cell viability and (B) cell membrane integrity were determined by the MTT assay and LDH release, respectively (C) PK15NTD/ENT1 and (D) PK15NTD/ENT2 cells were incubated with 50 μM of compound 3c or a vehicle (0.5% DMSO, as a control) for 24 or 48 h. […] After cleavage of extracellular biotin, internalized biotinylated proteins were precipitated with immobilized streptavidin beads and detected with an anti-ENT1 and anti-ENT2 antibodies by western blotting. […]

ENT2 [2] = experiment: as above; details: 50 µM, 24 h or 48 h, PK15NTD cells
Procedure: as §1, §2

Cc1cccc(Nc2nc(N)nc(CN3CCN(c4ccc(F)cc4)CC3)n2)c1 [Compound 3c]
protein expression level of ENT2 (ENT2 [1]): unaltered | location of biotinylated ENT1 (internalization) (ENT1): exclusively found at the plasma membrane | location of biotinylated ENT2 (internalization) (ENT2 [2]): exclusively found at the plasma membrane
